System: Mycobacterium smegmatis, mc^2155
Test: Percent inhibition of growth of liquid culture (optical density vs control without antibiotic) at 2% or 0.02% glucose
Format: cell-based
Settings: for % inhibition of growth at 0.02% Glucose: 0.02% Glucose (starved)

CC[C@@H](CO)NCCN[C@@H](CC)CO [Ethambutol]
% inhibition of growth at 0.02% Glucose (0.15 μgm/ml): 37% | % inhibition of growth at 2% Glucose (0.15 μgm/ml): 44% | % inhibition of growth at 0.02% Glucose (0.31 μgm/ml): 66% | % inhibition of growth at 2% Glucose (0.31 μgm/ml): 85% | % inhibition of growth at 0.02% Glucose (0.63 μgm/ml): 68% | % inhibition of growth at 2% Glucose (0.63 μgm/ml): 91% | % inhibition of growth at 0.02% Glucose (1.25 μgm/ml): 72% | % inhibition of growth at 2% Glucose (1.25 μgm/ml): 93%

NNC(=O)c1ccncc1 [Isoniazide]
% inhibition of growth at 0.02% Glucose (0.8 μgm/ml): 12% | % inhibition of growth at 2% Glucose (0.8 μgm/ml): 33% | % inhibition of growth at 0.02% Glucose (1.6 μgm/ml): 30% | % inhibition of growth at 2% Glucose (1.6 μgm/ml): 70% | % inhibition of growth at 0.02% Glucose (3.2 μgm/ml): 70% | % inhibition of growth at 2% Glucose (3.2 μgm/ml): 90% | % inhibition of growth at 0.02% Glucose (6.4 μgm/ml): 78% | % inhibition of growth at 2% Glucose (6.4 μgm/ml): 96%

CO[C@H]1/C=C/O[C@@]2(C)Oc3c(C)c(O)c4c(O)c(c(/C=N/N5CCN(C)CC5)c(O)c4c3C2=O)NC(=O)/C(C)=C\C=C\[C@H](C)[C@H](O)[C@@H](C)[C@@H](O)[C@@H](C)[C@H](OC(C)=O)[C@@H]1C [Rifampicin]
% inhibition of growth at 0.02% Glucose (0.25 μgm/ml): 9% | % inhibition of growth at 2% Glucose (0.25 μgm/ml): 39% | % inhibition of growth at 0.02% Glucose (0.5 μgm/ml): 17% | % inhibition of growth at 2% Glucose (0.5 μgm/ml): 58% | % inhibition of growth at 0.02% Glucose (1.0 μgm/ml): 29% | % inhibition of growth at 2% Glucose (1.0 μgm/ml): 70% | % inhibition of growth at 0.02% Glucose (2.0 μgm/ml): 68% | % inhibition of growth at 2% Glucose (2.0 μgm/ml): 89% | reduction of inhibition of growth in the presence of the promoter under a stationary or a starved state (stationary or starved state): about 20%
